Source: patent US7795218B2, “ADP-ribosyl transferase fusion variant proteins” (priority 2003, dated 2010)

What was measured:
Format in all cases: cell-based, human
HUVEC [1] = test: HUVEC tube formation on ECmatrix; conditions: 50 μM
Procedure: FIG. 31 illustrates that SEQ ID NO: 10 decreases tube formation in HUVEC, wherein HUVEC were seeded on solidified ECmatrix™ without (Control) or with 10 μg/mL or 50 μg/mL of SEQ ID NO: 10 or the angiogenesis inhibitor Tranilast, cells were also incubated with 10 μM or 50 μM of the ROCK inhibitor Fasudil, capillary-like structures were visualized between 6 h to 20 h incubation, and wherein in (A) photographs were taken under phase contrast inverted microscope at 40× magnification and (B) quantification of tube length was reported as percentage of the length from untreated cells SEM (photographs and quantification are representative of at least 2 independent experiments analyzed in triplicate; symbols * and ** represent respectively significant (p<0.05) and highly significant (p<0.01) difference from untreated cells);
Referring to FIG. 31, to evaluate the importance of the signalling pathway Rho-Rock in angiogenesis, Transilat (10 μg/ml and 50 μg/ml) is used as a positive control. Transilat is known to block one of the principal angiogenesis routes i.e. the VEGF pathway. The binding of VEGF to VEGF-R stimulates tyrosine auto-phosphorylation of one of the receptors which initiates a signalling pathway, in part through PKC. Tranilast acts by inhibiting VEGF dependent PKC activation. […]

HUVEC [2] = test: VEGF-dependent HUVEC migration (transwell); conditions: 20 hours
Procedure: FIG. 33 illustrates that SEQ ID NO: 10 can modify VEGF-dependent HUVEC migration, wherein in (A) HUVEC were seeded into 24-well-fibronectin-coated transwell chambers containing SEQ ID NO: 10, Fasudil or Tranilast, migration was stimulated for 20 hours with 10 ng/mL of VEGF with or without test compound, migrated cells were measured by fluorescence using Calcein-AM as a probe, and in (B) HUVEC were pre-treated for 24 hours with 50 μg/mL of SEQ ID NO: 10 prior to the start of migration (results are expressed as a percentage of that from untreated cells stimulated with VEGF±SEM and represent 4 independent experiments analyzed in duplicate; symbols * and *** represent, respectively, significant (p<0.05) and highly significant (p<0.001) difference from untreated cells+VEGF (Control+VEGF); symbol # # # represents significant difference (p<0.001) from untreated cells−VEGF (Control−VEGF));
Another cellular function and part of the angiogenic process that is known to be perturbed by Rho GTPase inhibition is endothelial cell migration. In order to evaluate the effect of SEQ ID NO: 10 on HUVEC migration, cells are seeded in the upper side of a transwell insert along with the desired test compounds, and migration is then induced with 10 ng/mL of VEGF at the bottom side of the insert. After 20 hours of migration, cells that pass through the membrane of the insert are labeled with calcein AM probe and detected via fluorescence. […].

HUVEC [3] = test: HUVEC proliferation (Alamar blue); conditions: up to 100 μg/mL (or μM), 24 hr or 72 hr
Procedure: FIG. 32 illustrates that SEQ ID NO: 10 affects HUVEC proliferation at high concentration, wherein HUVEC were plated in 96 wells (collagen 1-coated) and incubated during 24 h or 72 with 0 to 100 μg/mL (or μM) of SEQ ID NO: 10, Fasudil or Tranilast, cells from 4 h and 24 h were washed out and replenished with fresh media containing no test compounds and left until 72 hours, and at the end of treatment (72 hours) Alamar blue was added, incubated for 4 hours and fluorescence was measured. Proliferation is represented in a graph as a percentage of that from untreated cells (0 μg/mL)±S.D. and represents 2 independent studies analyzed in triplicate;
Given that SEQ ID NO: 10 efficiently ribosylates RhoA and therefore inhibits its activity under these conditions, it appears that the proliferation of HUVEC in this system, along with this part of the angiogenic sequence, proceeds independently of RhoA activity. In contrast, HUVEC proliferation seems to depend on Rho kinase activity as well as on the activity of those targets, possibly including protein kinase C, blocked by Tranilast.

Row | SMILES | decrease of tube formation (HUVEC [1]) | decrease of VEGF-induced HUVEC migration (HUVEC [2]; 50 μM) | HUVEC proliferation (HUVEC [3]) | decrease of VEGF-induced HUVEC migration (HUVEC [2]; 10 μg/mL) | decrease of VEGF-induced HUVEC migration (HUVEC [2]; 50 μg/mL)
1 | O=S(=O)(c1cccc2cnccc12)N1CCCNCC1 [Fasudil] | 58% | 66% | significant (p<0.01) reductions in HUVEC cell proliferation |  | 
2 | COc1ccc(/C=C/C(=O)Nc2ccccc2C(=O)O)cc1OC [Tranilast] |  |  |  | 45% | 72%
